Experimental data: patent US11957687B2 (REGENERON PHARMACEUTICALS, INC., priority 2019, dated 2024)

Target: HSD17B13 (Homo sapiens (Human), UniProt Q7Z5P4)
Experiment: HSD17B13 enzymatic inhibition assay (150 nM or 50 nM HSD17B13)
Assay type: biochemical
Details: 50 nM HSD17B13; read-out: Inhibition of 50 nM of HSD17B13 IC50

Sequence of HSD17B13 (Q7Z5P4 other isoform, or with tags, fused parts or gaps): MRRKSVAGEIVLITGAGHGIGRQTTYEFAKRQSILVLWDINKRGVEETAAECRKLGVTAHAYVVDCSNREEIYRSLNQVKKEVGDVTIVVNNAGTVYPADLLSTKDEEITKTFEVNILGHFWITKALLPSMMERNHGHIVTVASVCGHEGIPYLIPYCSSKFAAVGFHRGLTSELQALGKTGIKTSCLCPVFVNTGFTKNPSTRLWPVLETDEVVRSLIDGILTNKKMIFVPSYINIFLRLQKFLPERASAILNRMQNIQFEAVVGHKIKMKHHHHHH

Row | SMILES | IC50 [nM]
1 | C=Cc1cc(C(=O)NC2c3ccc(C)cc3Oc3cccc(C)c32)c(=O)[nH]c1C(F)(F)F (centres unmarked) [Compound 168, N-(1,6-dimethyl-9H-xanthen-9-yl)-2-oxo-6-(trifluoromethyl)-5-vinyl-1,2-dihydropyridine-3-carboxamide] | 330
2 | CCc1cc(C(=O)NC2c3ccc(Cl)cc3Oc3cccc(Cl)c32)c(=O)[nH]c1C(F)(F)F (centres unmarked) [Compound 169, N-(1,6-dichloro-9H-xanthen-9-yl)-5-ethyl-2-oxo-6-(trifluoromethyl)-1,2-dihydropyridine-3-carboxamide] | 780
3 | C=Cc1cc(C(=O)NC2c3ccc(Cl)cc3Oc3cccc(Cl)c32)c(=O)[nH]c1C(F)(F)F (centres unmarked) [Compound 170, N-(1,6-dichloro-9H-xanthen-9-yl)-2-oxo-6-(trifluoromethyl)-5-vinyl-1,2-dihydropyridine-3-carboxamide] | 350
4 | C=Cc1cc(C(=O)NC2c3ccc(Cl)cc3Oc3cc(Cl)ccc32)c(=O)[nH]c1C(F)(F)F [Compound 171, N-(3,6-dichloro-9H-xanthen-9-yl)-2-oxo-6-(trifluoromethyl)-5-vinyl-1,2-dihydropyridine-3-carboxamide] | 100
5 | CCc1cc(C(=O)NC2c3ccc(Cl)cc3Oc3cc(Cl)ccc32)c(=O)[nH]c1C(F)(F)F [Compound 172, N-(3,6-dichloro-9H-xanthen-9-yl)-5-ethyl-2-oxo-6-(trifluoromethyl)-1,2-dihydropyridine-3-carboxamide] | 140
6 | C=CCc1cc(C(=O)NC2c3ccc(Cl)cc3Oc3cc(Cl)ccc32)c(=O)[nH]c1C(F)(F)F [Compound 173, 5-allyl-N-(3,6-dichloro-9H-xanthen-9-yl)-2-oxo-6-(trifluoromethyl)-1,2-dihydropyridine-3-carboxamide] | 30
7 | C=CCc1cc(C(=O)NC2c3ccc(Cl)cc3Oc3cccc(Cl)c32)c(=O)[nH]c1C(F)(F)F (centres unmarked) [Compound 174, 5-allyl-N-(1,6-dichloro-9H-xanthen-9-yl)-2-oxo-6-(trifluoromethyl)-1,2-dihydropyridine-3-carboxamide] | 240
8 | Cc1ccc2c(c1)Oc1cccc(C)c1C2NC(=O)c1cc(-c2ccccc2)c(C(F)(F)F)[nH]c1=O (centres unmarked) [Compound 175, N-(1,6-dimethyl-9H-xanthen-9-yl)-2-oxo-5-phenyl-6-(trifluoromethyl)-1,2-dihydropyridine-3-carboxamide] | 280
9 | CCCc1cc(C(=O)NC2c3ccc(Cl)cc3Oc3cccc(Cl)c32)c(=O)[nH]c1C(F)(F)F (centres unmarked) [Compound 179, N-(1,6-dichloro-9H-xanthen-9-yl)-2-oxo-5-propyl-6-(trifluoromethyl)-1,2-dihydropyridine-3-carboxamide] | 400
10 | C=CCc1cc(C(=O)NC2c3ccc(C)cc3Oc3cccc(C)c32)c(=O)[nH]c1C(F)(F)F (centres unmarked) [Compound 180, 5-allyl-N-(1,6-dimethyl-9H-xanthen-9-yl)-2-oxo-6-(trifluoromethyl)-1,2-dihydropyridine-3-carboxamide] | 160
11 | CCCc1cc(C(=O)NC2c3ccc(C)cc3Oc3cccc(C)c32)c(=O)[nH]c1C(F)(F)F (centres unmarked) [Compound 181, N-(1,6-dimethyl-9H-xanthen-9-yl)-2-oxo-5-propyl-6-(trifluoromethyl)-1,2-dihydropyridine-3-carboxamide] | 390
12 | Cc1ccc2c(c1)Oc1cccc(C)c1C2NC(=O)c1cc(CCc2ccccc2)c(C(F)(F)F)[nH]c1=O (centres unmarked) [Compound 184, N-(1,6-dimethyl-9H-xanthen-9-yl)-2-oxo-5-phenethyl-6-(trifluoromethyl)-1,2-dihydropyridine-3-carboxamide] | 150
13 | Cc1ccc2c(c1)Oc1cccc(C)c1C2NC(=O)c1cc(CO)c(C(F)(F)F)[nH]c1=O (centres unmarked) [Compound 185, N-(1,6-dimethyl-9H-xanthen-9-yl)-5-(hydroxymethyl)-2-oxo-6-(trifluoromethyl)-1,2-dihydropyridine-3-carboxamide] | 730
14 | Cc1ccc2c(c1)Oc1cccc(C)c1C2NC(=O)c1cc(C2CCCCC2)c(C(F)(F)F)[nH]c1=O (centres unmarked) [Compound 186, 5-cyclohexyl-N-(1,6-dimethyl-9H-xanthen-9-yl)-2-oxo-6-(trifluoromethyl)-1,2-dihydropyridine-3-carboxamide] | 1830
15 | Cc1ccc2c(c1)Oc1cccc(C)c1C2NC(=O)c1cc(C2=CCCCC2)c(C(F)(F)F)[nH]c1=O (centres unmarked) [Compound 187, 5-(cyclohex-1-en-1-yl)-N-(1,6-dimethyl-9H-xanthen-9-yl)-2-oxo-6-(trifluoromethyl)-1,2-dihydropyridine-3-carboxamide] | 770
16 | Cc1ccc2c(c1)Oc1cccc(C)c1C2NC(=O)c1cc(C2=CCOCC2)c(C(F)(F)F)[nH]c1=O (centres unmarked) [Compound 188, 5-(3,6-dihydro-2H-pyran-4-yl)-N-(1,6-dimethyl-9H-xanthen-9-yl)-2-oxo-6-(trifluoromethyl)-1,2-dihydropyridine-3-carboxamide] | 280
17 | Cc1ccc2c(c1)Oc1cc(C)ccc1C2NC(=O)c1cc(Br)c(C(F)(F)F)[nH]c1=O [Compound 189, 5-bromo-N-(3,6-dimethyl-9H-xanthen-9-yl)-2-oxo-6-(trifluoromethyl)-1,2-dihydropyridine-3-carboxamide] | 70
18 | O=C(NC1c2ccc(Cl)cc2Oc2cccc(Cl)c21)c1cnc(C(F)(F)F)[nH]c1=O (centres unmarked) [Compound 191, N-(1,6-dichloro-9H-xanthen-9-yl)-6-oxo-2-(trifluoromethyl)-1,6-dihydropyrimidine-5-carboxamide] | 870
19 | O=C(NC1c2ccc(Cl)cc2Oc2cc(Cl)ccc21)c1cnc(C(F)(F)F)[nH]c1=O [Compound 192, N-(3,6-dichloro-9H-xanthen-9-yl)-6-oxo-2-(trifluoromethyl)-1,6-dihydropyrimidine-5-carboxamide] | 230
20 | Cc1ccc2c(c1)Oc1cccc(C)c1C2NC(=O)c1cnc(C(F)(F)F)[nH]c1=O (centres unmarked) [Compound 193, N-(1,6-dimethyl-9H-xanthen-9-yl)-6-oxo-2-(trifluoromethyl)-1,6-dihydropyrimidine-5-carboxamide] | 1020
21 | CCCc1cc(C(F)(F)F)[nH]c(=O)c1C(=O)NC1c2ccc(Cl)cc2Oc2cccc(Cl)c21 (centres unmarked) [Compound 209, N-(1,6-dichloro-9H-xanthen-9-yl)-2-oxo-4-propyl-6-(trifluoromethyl)-1,2-dihydropyridine-3-carboxamide] | 3440
22 | CCCc1cc(C(F)(F)F)[nH]c(=O)c1C(=O)NC1c2ccc(Cl)cc2Oc2cc(Cl)ccc21 [Compound 210, N-(3,6-dichloro-9H-xanthen-9-yl)-2-oxo-4-propyl-6-(trifluoromethyl)-1,2-dihydropyridine-3-carboxamide] | 930

Results, then the compound that gave them:

Row | IC50 [nM] | SMILES
23 | 3310 | Cc1cc(C(F)(F)F)[nH]c(=O)c1C(=O)NC1c2ccccc2Oc2ccccc21 [Compound 195, 4-methyl-2-oxo-6-(trifluoromethyl)-N-(9H-xanthen-9-yl)-1,2-dihydropyridine-3-carboxamide]
24 | 630 | Cc1cc(C(F)(F)F)[nH]c(=O)c1C(=O)NC1c2ccccc2Oc2cc(Cl)ccc21 (centres unmarked) [Compound 196, N-(3-chloro-9H-xanthen-9-yl)-4-methyl-2-oxo-6-(trifluoromethyl)-1,2-dihydropyridine-3-carboxamide]
25 | 1130 | COc1ccc2c(c1)Oc1ccccc1C2NC(=O)c1ccc(C(F)(F)F)[nH]c1=O (centres unmarked) [Compound 197, N-(3-methoxy-9H-xanthen-9-yl)-2-oxo-6-(trifluoromethyl)-1,2-dihydropyridine-3-carboxamide]
26 | 5150 | Cc1ccc2c(c1)Oc1cccc(C)c1C2NC(=O)c1c(C)cc(C(F)(F)F)[nH]c1=O (centres unmarked) [Compound 199, N-(1,6-dimethyl-9H-xanthen-9-yl)-4-methyl-2-oxo-6-(trifluoromethyl)-1,2-dihydropyridine-3-carboxamide]
27 | > 10000 | Cc1cc(C(F)(F)F)[nH]c(=O)c1C(=O)NC1c2ccc(Cl)cc2Oc2cccc(Cl)c21 (centres unmarked) [Compound 200, N-(1,6-dichloro-9H-xanthen-9-yl)-4-methyl-2-oxo-6-(trifluoromethyl)-1,2-dihydropyridine-3-carboxamide]
28 | 430 | CCc1cc(C(F)(F)F)[nH]c(=O)c1C(=O)NC1c2ccc(C)cc2Oc2cc(C)ccc21 [Compound 201, N-(3,6-dimethyl-9H-xanthen-9-yl)-4-ethyl-2-oxo-6-(trifluoromethyl)-1,2-dihydropyridine-3-carboxamide]
29 | 350 | Cc1ccc2c(c1)Oc1cc(C)ccc1C2NC(=O)c1c(C)cc(C(F)(F)F)[nH]c1=O [Compound 202, N-(3,6-dimethyl-9H-xanthen-9-yl)-4-methyl-2-oxo-6-(trifluoromethyl)-1,2-dihydropyridine-3-carboxamide]
30 | 1050 | Cc1cc(C(F)(F)F)[nH]c(=O)c1C(=O)NC1c2ccc(Cl)cc2Oc2cc(Cl)ccc21 [Compound 203, N-(3,6-dichloro-9H-xanthen-9-yl)-4-methyl-2-oxo-6-(trifluoromethyl)-1,2-dihydropyridine-3-carboxamide]
31 | > 10000 | CCc1cc(C(F)(F)F)[nH]c(=O)c1C(=O)NC1c2ccc(C)cc2Oc2cccc(C)c21 (centres unmarked) [Compound 204, N-(1,6-dimethyl-9H-xanthen-9-yl)-4-ethyl-2-oxo-6-(trifluoromethyl)-1,2-dihydropyridine-3-carboxamide]
32 | > 10000 | CCc1cc(C(F)(F)F)[nH]c(=O)c1C(=O)NC1c2ccc(Cl)cc2Oc2cccc(Cl)c21 (centres unmarked) [Compound 205, N-(1,6-dichloro-9H-xanthen-9-yl)-4-ethyl-2-oxo-6-(trifluoromethyl)-1,2-dihydropyridine-3-carboxamide]
33 | 290 | CCc1cc(C(F)(F)F)[nH]c(=O)c1C(=O)NC1c2ccc(Cl)cc2Oc2cc(Cl)ccc21 [Compound 206, N-(3,6-dichloro-9H-xanthen-9-yl)-4-ethyl-2-oxo-6-(trifluoromethyl)-1,2-dihydropyridine-3-carboxamide]
34 | 180 | CCCc1cc(C(F)(F)F)[nH]c(=O)c1C(=O)NC1c2ccc(C)cc2Oc2cc(C)ccc21 [Compound 207, N-(3,6-dimethyl-9H-xanthen-9-yl)-2-oxo-4-propyl-6-(trifluoromethyl)-1,2-dihydropyridine-3-carboxamide]
35 | > 10000 | CCCc1cc(C(F)(F)F)[nH]c(=O)c1C(=O)NC1c2ccc(C)cc2Oc2cccc(C)c21 (centres unmarked) [Compound 208, N-(1,6-dimethyl-9H-xanthen-9-yl)-2-oxo-4-propyl-6-(trifluoromethyl)-1,2-dihydropyridine-3-carboxamide]
